# Where two headings read alike, the source gives them in different places.
# Columns and labels:
# [1] = system: Enterobacter cloacae MA75-1; test: In vitro MIC, agar dilution, Enterobacter cloacae MA75-1; format: cell-based; settings: read-out: Minimal Inhibitory Concentration
# Method: (§1) The in vitro activity of representative compounds of the present invention are given in the following Table I in terms of minimal inhibitory concentration. The test used was the standard agar dilution test using a Steers multiple inocula replicator and incubating at 35° C. for 18 hours in conventional nutrient agar.
# [2] = system: Pseudomonas aeruginosa PD05141; test: In vitro MIC, agar dilution, Pseudomonas aeruginosa PD05141; format: cell-based; settings: Pseudomonas aeruginosa PD05141; agar dilution, 35° C., 18 hours, nutrient agar; read-out: Minimal Inhibitory Concentration
# Method: as §1
# [3] = system: Staphylococcus aureus Q74-6; test: In vitro MIC, agar dilution, Staphylococcus aureus Q74-6; format: cell-based; settings: Q746; Staphylococcus aureus Q74-6; agar dilution, 35° C., 18 hours, nutrient agar; read-out: Minimal Inhibitory Concentration
# Method: as §1
# [4] = system: Serratia marcens K77-1; test: In vitro MIC, agar dilution, Serratia marcens K77-1; format: cell-based; settings: K771; Serratia marcens K77-1; agar dilution, 35° C., 18 hours, nutrient agar; read-out: Minimal Inhibitory Concentration
# Method: as §1
# [5] = system: Escherichia coli 311; test: In vitro MIC, agar dilution, Escherichia coli 311; format: cell-based; settings: 35° C., 18 hours, nutrient agar, read-out: Minimal Inhibitory Concentration
# Method: as §1
# [6] = system: Proteus morganii K72; test: In vitro MIC, agar dilution, Proteus morganii K72; format: cell-based; settings: Morganella morganii; Proteus morganii K72; agar dilution, 35° C., 18 hours, nutrient agar; read-out: Minimal Inhibitory Concentration
# Method: as §1
# [7] = system: Serratia K101; test: In vitro MIC, agar dilution, Serratia K101; format: cell-based; settings: Serratia K101; agar dilution, 35° C., 18 hours, nutrient agar; read-out: Minimal Inhibitory Concentration
# Method: as §1
# [8] = system: Pseudomonas aeruginosa UCS 76-13; test: In vitro MIC, agar dilution, Pseudomonas aeruginosa UCS 76-13; format: cell-based; settings: UCS7613; Pseudomonas aeruginosa UCS 76-13; agar dilution, 35° C., 18 hours, nutrient agar; read-out: Minimal Inhibitory Concentration
# Method: as §1
# [9] = system: Serratia marcens QHC77-2; test: In vitro MIC, agar dilution, Serratia marcens QHC77-2; format: cell-based; settings: QHC772; Serratia marcens QHC77-2; agar dilution, 35° C., 18 hours, nutrient agar; read-out: Minimal Inhibitory Concentration
# Method: as §1
# [10] = system: Klebsiella pneumoniae UR76-1; test: In vitro MIC, agar dilution, Klebsiella pneumoniae UR76-1; format: cell-based; settings: UR761; Klebsiella pneumoniae UR76-1; agar dilution, 35° C., 18 hours, nutrient agar; read-out: Minimal Inhibitory Concentration
# Method: as §1
# [11] = system: Pseudomonas aeruginosa G236; test: In vitro MIC, agar dilution, Pseudomonas aeruginosa G236; format: cell-based; settings: Pseudomonas aeruginosa G236; agar dilution, 35° C., 18 hours, nutrient agar; read-out: Minimal Inhibitory Concentration
# Method: as §1
# [12] = system: Klebsiella pneumoniae AD; test: In vitro MIC, agar dilution, Klebsiella pneumoniae AD; format: cell-based; settings: Klebsiella pneumoniae AD; agar dilution, 35° C., 18 hours, nutrient agar; read-out: Minimal Inhibitory Concentration
# Method: as §1
# [13] = system: Proteus rettgeri N76-1; test: In vitro MIC, agar dilution, Proteus rettgeri N76-1; format: cell-based; settings: Providencia rettgeri, N761; Proteus rettgeri N76-1; agar dilution, 35° C., 18 hours, nutrient agar; read-out: Minimal Inhibitory Concentration
# Method: as §1
# [14] = system: Klebsiella pneumoniae W75-2; test: In vitro MIC, agar dilution, Klebsiella pneumoniae W75-2; format: cell-based; settings: W752; Klebsiella pneumoniae W75-2; agar dilution, 35° C., 18 hours, nutrient agar; read-out: Minimal Inhibitory Concentration
# Method: as §1
# [15] = system: Enterococcus SM77-15; test: In vitro MIC, agar dilution, Enterococcus SM77-15; format: cell-based; settings: SM7715; Enterococcus SM77-15; agar dilution, 35° C., 18 hours, nutrient agar; read-out: Minimal Inhibitory Concentration
# Method: as §1
# [16] = system: Staphylococcus aureus Q74-1; test: In vitro MIC, agar dilution, Staphylococcus aureus Q74-1; format: cell-based; settings: Q741; Staphylococcus aureus Q74-1; agar dilution, 35° C., 18 hours, nutrient agar; read-out: Minimal Inhibitory Concentration
# Method: as §1
# [17] = system: Escherichia coli W75-1; test: In vitro MIC, agar dilution, Escherichia coli W75-1; format: cell-based; settings: W751, 35° C., 18 hours, nutrient agar, read-out: Minimal Inhibitory Concentration
# Method: as §1
# [18] = system: Escherichia coli OSU75-1; test: In vitro MIC, agar dilution, Escherichia coli OSU75-1; format: cell-based; settings: OSU751, 35° C., 18 hours, nutrient agar, read-out: Minimal Inhibitory Concentration
# Method: as §1
# [19] = system: Escherichia coli ESS22-31; test: In vitro MIC, agar dilution, Escherichia coli ESS22-31; format: cell-based; settings: read-out: Minimal Inhibitory Concentration
# Method: as §1
# [20] = system: Enterobacter aerogenes UR76-3; test: In vitro MIC, agar dilution, Enterobacter aerogenes UR76-3; format: cell-based; settings: Klebsiella aerogenes, UR763; Enterobacter aerogenes UR76-3; agar dilution, 35° C., 18 hours, nutrient agar; read-out: Minimal Inhibitory Concentration
# Method: as §1
# [21] = system: Enterobacter cloacae OSU75-2; test: In vitro MIC, agar dilution, Enterobacter cloacae OSU75-2; format: cell-based; settings: OSU752; Enterobacter cloacae OSU75-2; agar dilution, 35° C., 18 hours, nutrient agar; read-out: Minimal Inhibitory Concentration
# Method: as §1
# [22] = system: Proteus vulgaris N74-1; test: In vitro MIC, agar dilution, Proteus vulgaris N74-1; format: cell-based; settings: N741, 35° C., 18 hours, nutrient agar, read-out: Minimal Inhibitory Concentration
# Method: as §1
# [23] = system: Klebsiella pneumoniae W75-4; test: In vitro MIC, agar dilution, Klebsiella pneumoniae W75-4; format: cell-based; settings: W754; Klebsiella pneumoniae W75-4; agar dilution, 35° C., 18 hours, nutrient agar; read-out: Minimal Inhibitory Concentration
# Method: as §1
# [24] = system: Pseudomonas aeruginosa 12-4-4; test: In vitro MIC, agar dilution, Pseudomonas aeruginosa 12-4-4; format: cell-based; settings: read-out: Minimal Inhibitory Concentration
# Method: as §1
# [25] = system: Klebsiella pneumoniae MA75-1; test: In vitro MIC, agar dilution, Klebsiella pneumoniae MA75-1; format: cell-based; settings: MA751; Klebsiella pneumoniae MA75-1; agar dilution, 35° C., 18 hours, nutrient agar; read-out: Minimal Inhibitory Concentration
# Method: as §1
# [26] = system: Escherichia coli 311; test: In vivo systemic lethal infection of mice, Escherichia coli 311; set-up: species or system Charles River CD-1 mice; settings: CD-1 mice
# Excerpt: As shown in Table II these compounds show high in vivo antibacterial activity against Escherichia coli 311 and Klebsiella pneumoniae W-75-2 when administered by a single subcutaneous dose to groups of Charles River CD-1 mice, weighing about 20 g. each. The mice are infected intraperitoneally with a lethal dose of these bacteria.
# [27] = MA751, Enterobacter cloacae MA75-1, agar dilution, 35° C., 18 hours, nutrient agar
# [28] = Escherichia coli, ESS2231, 18 h
# [29] = 1244, Pseudomonas aeruginosa 12-4-4, agar dilution, 35° C., 18 hours, nutrient agar
# [30] = single subcutaneous dose 1 mg./kg.
# [31] = single subcutaneous dose 2 mg./kg.
# [32] = single subcutaneous dose 4 mg./kg.
# [33] = ESS2231, Escherichia coli ESS22-31, agar dilution, 35° C., 18 hours, nutrient agar
SMILES,MIC [2],MIC [3],MIC [4],MIC [5],MIC [6],MIC [7],MIC [8],MIC [9],MIC [10],MIC [11],MIC [12],MIC [13],MIC [14],MIC [15],MIC [16],MIC [17],MIC [18],MIC [20],MIC [21],MIC [22],other results
"CC(=O)OCC1=C(C(=O)O)N2C(=O)[C@@H](NC(=O)[C@H](N)c3ccccc3)[C@H]2SC1 [Compound XI, Cephaloglycin, reference compound]",> 128 µg/mL,0.12 µg/mL,> 128 µg/mL,2 µg/mL,> 128 µg/mL,> 128 µg/mL,> 128 µg/mL,> 128 µg/mL,16 µg/mL,> 128 µg/mL,0.5 µg/mL,> 128 µg/mL,2 µg/mL,64 µg/mL,1 µg/mL,2 µg/mL,2 µg/mL,2 µg/mL,> 128 µg/mL,> 128 µg/mL,"MIC [1, 27]: > 128 µg/mL; MIC [19, 28]: 0.12 µg/mL; MIC [23]: 8 µg/mL; MIC [24, 29]: > 128 µg/mL; MIC [25]: 1 µg/mL"
"Cc1nnc(SCC2=C(C(=O)O)N3C(=O)[C@@H](NC(=O)Cn4cnnn4)[C@H]3SC2)s1 [Compound XII, Cefazolin, reference compound]",> 128 µg/mL,≤ 0.06 µg/mL,> 128 µg/mL,0.5 µg/mL,> 128 µg/mL,> 128 µg/mL,> 128 µg/mL,> 128 µg/mL,64 µg/mL,> 128 µg/mL,0.5 µg/mL,> 128 µg/mL,1 µg/mL,16 µg/mL,0.12 µg/mL,1 µg/mL,1 µg/mL,2 µg/mL,> 128 µg/mL,> 128 µg/mL,"MIC [1, 27]: > 128 µg/mL; MIC [19, 28]: 0.25 µg/mL; MIC [23]: 8 µg/mL; MIC [24, 29]: > 128 µg/mL; MIC [25]: 1 µg/mL"
"CO/N=C(\C(=O)NC1C(=O)N2C(C(=O)O)=C(CSc3nnc(-n4nc(C)cc4C)n3N)CSC12)c1csc(N)n1 (stereo not drawn) [Compound II, 7-[2-(Syn-methoxyimino)-2-(2-aminothiazol-4-yl)acetamido]-3-[4-amino-5-(1-[3,5-dimethyl]pyrazolyl)-1,2,4-triazol-3-ylthiomethyl]-3-cephem-4-carboxylicacid]",> 128 µg/mL,64 µg/mL,1 µg/mL,≤ 0.12 µg/mL,0.5 µg/mL,1 µg/mL,> 128 µg/mL,2 µg/mL,0.5 µg/mL,128 µg/mL,≤ 0.12 µg/mL,0.5 µg/mL,0.25 µg/mL,> 128 µg/mL,2 µg/mL,0.25 µg/mL,0.25 µg/mL,≤ 0.12 µg/mL,2 µg/mL,0.5 µg/mL,"MIC [1, 27]: 128 µg/mL; Alive/Total Mice Tested, 7 Days After Infection [26, 30]: 0/5; Alive/Total Mice Tested, 7 Days After Infection [26, 31]: 5/5; Alive/Total Mice Tested, 7 Days After Infection [26, 32]: 5/5; Alive/Total Mice Tested, 7 Days After Infection ([26]; single subcutaneous dose 8 mg./kg.): 5/5; MIC [19, 33]: ≤ 0.12 µg/mL; MIC [23]: 0.25 µg/mL; MIC ([24]; Pseudomonas aeruginosa, 1244, 18 h): 64 µg/mL; MIC [25]: ≤ 0.12 µg/mL"
"CCN1CCN(C(=O)NC(C(=O)NC2C(=O)N3C(C(=O)O)=C(CSc4nnc(-n5cccn5)n4N)CS[C@H]23)c2ccc(O)cc2)C(=O)C1=O (some centres unmarked) [Compound VII, 7-[2-(4-Ethyl-2,3-dioxo-1-piperazinecarboxamido)-2-(p-hydroxyphenyl)acetamido]-3-[4-amino-5-(1-pyrazolyl)-1,2,4-triazol-3-ylthiomethyl]-3-cephem-4-carboxylic acid]",64 µg/mL,4 µg/mL,64 µg/mL,0.5 µg/mL,32 µg/mL,32 µg/mL,64 µg/mL,128 µg/mL,16 µg/mL,32 µg/mL,1 µg/mL,8 µg/mL,2 µg/mL,128 µg/mL,2 µg/mL,1 µg/mL,1 µg/mL,0.25 µg/mL,16 µg/mL,32 µg/mL,"MIC [1, 27]: > 128 µg/mL; MIC [19, 33]: ≤ 0.12 µg/mL; MIC [23]: 32 µg/mL; MIC [24, 29]: 16 µg/mL; MIC [25]: 1 µg/mL"
"CO/N=C(\C(=O)NC1C(=O)N2C(C(=O)O)=C(CSc3n[nH]c(-n4cccn4)n3)CSC12)c1csc(N)n1 (stereo not drawn) [Compound V, 7-[2-(Syn-methoxyimino)-2-(2-aminothiazol-4-yl)acetamido]-3-[5-(1-pyrazolyl)-1,2,4-triazol-3-ylthiomethyl]-3-cephem-4-carboxylic acid]",64 µg/mL,64 µg/mL,0.5 µg/mL,≤ 0.12 µg/mL,≤ 0.12 µg/mL,0.5 µg/mL,64 µg/mL,0.25 µg/mL,0.25 µg/mL,16 µg/mL,≤ 0.12 µg/mL,≤ 0.12 µg/mL,≤ 0.12 µg/mL,> 128 µg/mL,1 µg/mL,≤ 0.12 µg/mL,≤ 0.12 µg/mL,≤ 0.12 µg/mL,4 µg/mL,2 µg/mL,"MIC ([1]; Enterobacter cloacae, MA751, 18 h): > 128 µg/mL; Alive/Total Mice Tested, 7 Days After Infection ([26]; single subcutaneous dose 0.25 mg./kg.): 0/5; Alive/Total Mice Tested, 7 Days After Infection ([26]; single subcutaneous dose 0.5 mg./kg.): 0/5; Alive/Total Mice Tested, 7 Days After Infection [26, 30]: 5/5; Alive/Total Mice Tested, 7 Days After Infection [26, 31]: 5/5; Alive/Total Mice Tested, 7 Days After Infection [26, 32]: 5/5; MIC [19, 33]: ≤ 0.12 µg/mL; MIC [23]: ≤ 0.12 µg/mL; MIC [24, 29]: 16 µg/mL; MIC [25]: ≤ 0.12 µg/mL"

# Source: patent US4336375A, “Cephalosporanic acid derivatives” (American Cyanamid Company, priority 1980, dated 1982)
